Patent US10815238B2, “Antimicrobial compounds and methods of making and using the same” (BIOVERSYS AG, priority 2013, dated 2020)

The compounds below were run on Eschericia coli (E. coli) strain ATCC25922 (assay: Standard microdilution assay, MIC against E. coli ATCC25922). Conditions: Escherichia coli; E. coli strain ATCC25922, standard microdilution assay; cutoff 16 micrograms/mL; read-out: MIC E. Coli.
Type: cell-based
Experimental: The in vitro activity of the compounds of the present invention can be determined. Antimicrobial testing is typically performed to determine the minimum inhibitory concentration (MIC). Minimum inhibitory concentrations (MICs) are determined by the microdilution method in a final volume of 100 μl according to protocols outlined by The Clinical and Laboratory Standards Institute (CLSI). Performance standards for reference strains are assessed within the same experimental design to maintain quality control. See, for example, Clinical Laboratory Standards Institute: Methods for dilution antimicrobial susceptibility tests for bacteria that grow aerobically M7-A8. Approved Standard-Eighth Edition. Wayne, Pa.: CLSI; December 2008; and Clinical Laboratory Standards Institute: Performance Standards for Antimicrobial Susceptibility Testing M100-S20; Approved Standard-Twentieth Edition. Wayne, Pa.: CLSI; June 2010.
The compounds of the present invention were tested for antimicrobial activity. The Compounds 1-582 were run against Eschericia coli (E. coli) strain ATCC25922 and Compounds 320-582 were run against Staphylococcus aureus (S. aureus) 11540 strain using a standard microdilution assay to determine minimum inhibitory concentrations (MICs). […] It will be recognized by one skilled in the art that the compounds can be assessed against other bacterial organisms and that the presentation of data for activity against Eschericia coli and Staphylococcus aureus are illustrative and in no way is intended to limit the scope of the present invention. The compounds of the present invention can be assayed against a range of other microorganisms depending upon the performance activity desired to be gathered. Furthermore, the “+” and “−” representation and the selection of a cutoff value of 16 micrograms/mL is also illustrative and in no way is intended to limit the scope of the present invention.

MIC | Compound
< 16 µg/mL | C[C@H](N)CCCc1cc(Cl)c(F)c(-c2cc3cn(-c4ccc(CNCC[C@@H](NC(=N)N)C5CC5)cc4)c(=O)nc3[nH]2)c1 [Compound 174]
< 16 µg/mL | C[C@H](NCCCNC(=N)N)c1ccc(-n2cc3cc(-c4cc(CCC[C@@H](N)COC(=O)Nc5ccccc5)cc(Cl)c4F)[nH]c3nc2=O)cc1 [Compound 307]
< 16 µg/mL | C[C@H](N)CCCc1cc(-c2cc3cn(-c4ccc([C@H](C)NCCCNC(=N)N)cc4)c(=O)nc3[nH]2)c(F)c(C(F)(F)F)c1F [Compound 214]
< 16 µg/mL | C[C@H](N)CCCc1cc(Cl)c(F)c(-c2cc3cn(-c4ccc([C@H](C)NCC[C@H](CCCO)NC(=N)N)cc4)c(=O)nc3[nH]2)c1 [Compound 275]
< 16 µg/mL | C=CC[C@H](CCN[C@@H](C)c1ccc(-n2cc3cc(-c4cc(CCC[C@H](C)N)cc(Cl)c4F)[nH]c3nc2=O)cc1)NC(=N)N [Compound 251]
< 16 µg/mL | Cc1cc(F)c(-c2cc3cn(-c4ccc([C@H](C)NCCCNC(=N)N)cc4)c(=O)nc3[nH]2)cc1CCC[C@H](C)N [Compound 33]
< 16 µg/mL | C[C@H](N)CCCc1cc(Cl)c(F)c(-c2cc3cn(-c4ccc([C@H](C)NCC[C@@H](CCc5ccccc5)NC(=N)N)cc4)c(=O)nc3[nH]2)c1 [Compound 258]
< 16 µg/mL | C=C[C@H](N)COCc1cc(SC(F)(F)F)cc(-c2cc3cn(-c4ccc([C@H](C)NCCCNC(=N)N)cc4)c(=O)nc3[nH]2)c1 [Compound 63]
< 16 µg/mL | C[C@H](N)CCCc1cc(-c2cc3cn(-c4ccc(CN5CCCN(C(=N)N)CC5)cc4)c(=O)nc3[nH]2)cc(C(F)(F)F)c1 [Compound 52]
< 16 µg/mL | C[C@H](N)CCCc1cc(-c2cc3cn(-c4ccc([C@H](CCO)NCCCNC(=N)N)cc4)c(=O)nc3[nH]2)cc(C(F)(F)F)c1 [Compound 16]
< 16 µg/mL | C[C@H](N)CCCc1cc(-c2cn3cc(-c4ccc([C@H](C)NCCCNC(=N)N)cc4)c(=O)nc3[nH]2)cc(C(F)(F)F)c1 [Compound 298]
< 16 µg/mL | C[C@H](N)CCCc1cc(SC(F)(F)F)cc(-c2cc3cn(-c4ccc([C@H](CO)NCCCNC(=N)N)cc4)c(=O)nc3[nH]2)c1 [Compound 104]
< 16 µg/mL | C[C@H](N)CCCc1cc(OC(F)(F)F)c(F)c(-c2cc3cn(-c4ccc([C@H](C)NCC[C@@H](CN)NC(=N)N)cc4)c(=O)nc3[nH]2)c1 [Compound 278]

Second part, the compound before the results:

Compound | MIC
CNCCNCc1ccc(-n2cc3cc(-c4cc(CCC[C@H](C)N)cc(SC(F)(F)F)c4)[nH]c3nc2=O)cc1 [Compound 124] | > 16 µg/mL
C[C@H](N)CCCc1cc(Cl)c(F)c(-c2cc3cn(-c4ccc([C@@H](C)NCCCNC(=N)N)cc4)c(=O)nc3[nH]2)c1 [Compound 317] | < 16 µg/mL
C[C@H](N)CCCc1cc(Cl)c(F)c(-c2cc3cn(-c4ccc([C@H](Cc5cccnc5)NCCCNC(=N)N)cc4)c(=O)nc3[nH]2)c1 [Compound 56] | < 16 µg/mL
CC(CCNCc1ccc(-n2cc3cc(-c4cc(CCC[C@H](C)N)cc(Cl)c4F)[nH]c3nc2=O)cc1)NC(=N)N (some centres unmarked) [Compound 186] | < 16 µg/mL
C[C@H](N)CCCc1cc(Cl)c(F)c(-c2cc3cn(-c4ccc(C[C@@H](CCCN)NC(=N)N)cc4)c(=O)nc3[nH]2)c1 [Compound 229] | < 16 µg/mL
N=C(N)NCCCNCc1ccc(-n2cc3cc(-c4ccc(C(=O)NCc5csc(N6CCOCC6)n5)cc4)[nH]c3nc2=O)cc1 [Compound 49] | < 16 µg/mL
C/C=C/C[C@H](CCN[C@@H](C)c1ccc(-n2cc3cc(-c4cc(CCC[C@H](C)N)cc(OC(F)(F)F)c4F)[nH]c3nc2=O)cc1)NC(=N)N [Compound 292] | < 16 µg/mL
COC[C@H](N)CCCc1cc(SC(F)(F)F)cc(-c2cc3cn(-c4ccc([C@H](C)NCCCNC(=N)N)cc4)c(=O)nc3[nH]2)c1 [Compound 130] | < 16 µg/mL
C[C@H](NCCCNC(=N)N)c1ccc(-n2cc3cc(-c4cc(CCC[C@@H](N)COC(=O)c5ccccc5)cc(Cl)c4F)[nH]c3nc2=O)cc1 [Compound 300] | < 16 µg/mL
C[C@H](N)CC[C@@H](O)c1cc(OC(F)(F)F)cc(-c2cc3cn(-c4ccc([C@H](C)NCCCNC(=N)N)cc4)c(=O)nc3[nH]2)c1 [Compound 34] | < 16 µg/mL
